Laboratory results published in paper PMC12382614, “(Oxidopyridyl)Porphyrins of Different Lipophilicity: Photophysical Properties, ROS Production and Phototoxicity on Melanoma Cells Under CoCl2-Induced Hypoxia” (Antioxidants, 2025).
Like-named read-outs stand apart in the source and are kept apart here.

Tests used:
[1] = tested on: A375; assay: Photocytotoxicity, MTT assay; assay type: cell-based, human; settings: red light 643 nm 30 min; for IC50: 6 h incubation; for SI (IC50 (HDF) / IC50 (melanoma cells)) A375 100 µM CoCl2: CoCl2-induced hypoxia; for SI (IC50 (HDF) / IC50 (melanoma cells)) A375 No CoCl2: normoxia
Experimental: (§1) For (photo)cytotoxicity assays, stock solutions of porphyrins were prepared in DMSO and dissolved in DMEM to the final concentrations. The porphyrin incubation time was 6h. Irradiation of the cells was with red light (λ = 643 nm) for 30 min (light dose, 3.6 J/cm^2). Nonirradiated cells were used to test the dark toxicity. All measurements were performed in three individual experiments, and the results are shown as the proliferation (%) of the cells and were calculated as IC50 values.
(§2) The cytotoxicity of (oxidopyridyl)porphyrins was assessed by an MTT assay on the HDF, MeWo and A375 cell lines after 6 h of incubation with porphyrins, without irradiation, or after 30 min of irradiation with red light (λ = 643 nm), and under conditions of normoxia or hypoxia. To induce hypoxia, 100 µM of CoCl2 was added at least two hours before the porphyrins. […] Oxygen is also one of the substrates for the activity of prolyl hydroxylases; therefore, in both cases, the result is the blockage of hydroxylation of HIF-1α and, consequently, its increase and stabilisation, which, in the case of CoCl2-induced hypoxia, can be maintained for several hours.

[2] = tested on: MeWo; assay: Photocytotoxicity, MTT assay; assay type: cell-based, human; settings: red light 643 nm 30 min; for IC50: 6 h incubation; for SI (IC50 (HDF) / IC50 (melanoma cells)) MeWo 100 µM CoCl2: CoCl2-induced hypoxia; for SI (IC50 (HDF) / IC50 (melanoma cells)) MeWo No CoCl2: normoxia
Experimental: as §1, §2

[3] = tested on: HDF; assay: Photocytotoxicity, MTT assay; assay type: cell-based, human; settings: 6 h incubation, red light 643 nm 30 min
Experimental: as §1, §2

[4] = Fluorescence spectra and fluorescence quantum yield in MeOH; assay type: physicochemical; settings: excitation at Soret band
Experimental: (§3) The absorption spectra of (oxidopyridyl)porphyrins were recorded in HPLC grade MeOH on a Cary UV 60 (Agilent Technologies, Santa Clara, CA, USA), in a wavelength range of 300–700 nm. The fluorescence spectra in HPLC grade MeOH were recorded on a Cary Eclipse (Agilent Technologies) in a wavelength range of 500–800 nm after excitation at the Soret band wavelength (λ ~ 420 nm). The slits of the spectrometer were set to a bandpass of 5 nm for the excitation and 5 nm for the emission. To calculate the fluorescence quantum yields, the measurements were conducted on an FS5 Edinburgh Instruments spectrometer. Prior to taking the measurements, the solutions were purged with high-purity N2 for at least 15 min. The absorbance of the solutions was set to A < 0.1 at 405 nm and 550 nm, which settings were used for the excitation process. Emission was recorded from 550 to 800 nm, with slits set to the bandpass corresponding to 2 nm for the excitation, and 3 nm for the emission. Fluorescence quantum yield (ΦFL) was calculated in comparison to the tetraphenylporphyrin (TPP; ΦFL = 0.11 [23]) as a standard, according to Equation (S1) and following an equation previously described elsewhere.

[5] = UV-Vis absorption spectra in MeOH; assay type: physicochemical
Experimental: as §3

[6] = tested on: HDF, MeWo and A375 cell lines; assay: (Photo)cytotoxicity MTT assay, statements made for all cell lines; assay type: cell-based, human; settings: irradiation 643 nm
Experimental: as §1, §2

[7] = 3.6 J/cm^2, 100 μM CoCl2 at least 2 h before porphyrin, read-out: IC50 A375 CoCl2
[8] = 3.6 J/cm^2, normoxia, read-out: IC50 A375 No CoCl2
[9] = 3.6 J/cm^2, 100 μM CoCl2 at least 2 h before porphyrin, read-out: IC50 MeWo CoCl2
[10] = 3.6 J/cm^2, normoxia, read-out: IC50 MeWo No CoCl2
[11] = 3.6 J/cm^2, 100 μM CoCl2 at least 2 h before porphyrin, read-out: IC50 HDF CoCl2
[12] = 3.6 J/cm^2, normoxia, read-out: IC50 HDF No CoCl2
[13] = Homo sapiens, A-375, light or radiation study, 3.6 J/cm^2, 100 μM CoCl2 at least 2 h before porphyrin, read-out: IC50 A375 CoCl2
[14] = Homo sapiens, A-375, light or radiation study, 3.6 J/cm^2, normoxia, read-out: IC50 A375 No CoCl2
[15] = Homo sapiens, MeWo, light or radiation study, 3.6 J/cm^2, 100 μM CoCl2 at least 2 h before porphyrin, read-out: IC50 MeWo CoCl2
[16] = Homo sapiens, MeWo, light or radiation study, 3.6 J/cm^2, normoxia, read-out: IC50 MeWo No CoCl2
[17] = Homo sapiens, HDF, light or radiation study, 3.6 J/cm^2, 100 μM CoCl2 at least 2 h before porphyrin, read-out: IC50 HDF CoCl2
[18] = Homo sapiens, HDF, light or radiation study, 3.6 J/cm^2, normoxia, read-out: IC50 HDF No CoCl2

Row | Structure (SMILES) | IC50 [1, 7] | IC50 [1, 8] | SI (IC50 (HDF) / IC50 (melanoma cells)) A375 100 µM CoCl2 [1] | SI (IC50 (HDF) / IC50 (melanoma cells)) A375 No CoCl2 [1] | IC50 [2, 9] | IC50 [2, 10] | SI (IC50 (HDF) / IC50 (melanoma cells)) MeWo 100 µM CoCl2 [2] | SI (IC50 (HDF) / IC50 (melanoma cells)) MeWo No CoCl2 [2] | IC50 [3, 11] | IC50 [3, 12] | λFL Q(0,0) [4] | λFL Q(0,1) [4] | ε Qx (0-0) [5] | ε Qx (1-0) [5] | ε Qy (0-0) [5] | ε Qy (1-0) [5] | ε Soret (B) [5] | λabs Qx (0-0) [5] | λabs Qx (1-0) [5] | λabs Qy (0-0) [5] | also measured
1 | CCCCCCCCCC(=O)Nc1ccc(-c2c3nc(c(-c4ccc[n+](C)c4)c4ccc([nH]4)c(-c4ccc[n+](C)c4)c4nc(c(-c5ccc[n+](C)c5)c5ccc2[nH]5)C=C4)C=C3)cc1 [TMPyP3-C9H19] | 990 ± 130 nM | 670 ± 30 nM | 9.0 | 10.6 | 6810 ± 1360 nM | 3520 ± 650 nM | 1.3 | 2.0 | 8.87 ± 0.02 µM | 7.09 ± 0.66 µM |  |  |  |  |  |  |  |  |  |  | 
2 | CCCCCCCCCCCCCC(=O)Nc1ccc(-c2c3nc(c(-c4ccc[n+]([O-])c4)c4ccc([nH]4)c(-c4ccc[n+]([O-])c4)c4nc(c(-c5ccc[n+]([O-])c5)c5ccc2[nH]5)C=C4)C=C3)cc1 [TOPyP3-C13H27, 5-(4-Tetradecanamidophenyl)-10,15,20-tris(1-oxido-3-pyridyl)porphyrin] |  |  | 3.0 | 1.1 |  |  | 1.5 | 0.8 |  |  | 648 nm | 713 nm | 2000 M⁻¹ cm⁻¹ | 6000 M⁻¹ cm⁻¹ | 5800 M⁻¹ cm⁻¹ | 19300 M⁻¹ cm⁻¹ | 364600 M⁻¹ cm⁻¹ | 646 nm | 588 nm | 547 nm | λabs Qy (1-0) [5]: 512 nm; λabs Soret (B) [5]: 417 nm; IC50 [1, 13]: 860 ± 60 nM; IC50 [1, 14]: 780 ± 170 nM; IC50 [2, 15]: 1790 ± 370 nM; IC50 [2, 16]: 1040 ± 90 nM; IC50 [3, 17]: 2.62 ± 0.19 µM; IC50 [3, 18]: 0.86 ± 0.04 µM
3 | CCCCCCCCCC(=O)Nc1ccc(-c2c3nc(c(-c4ccc[n+]([O-])c4)c4ccc([nH]4)c(-c4ccc[n+]([O-])c4)c4nc(c(-c5ccc[n+]([O-])c5)c5ccc2[nH]5)C=C4)C=C3)cc1 [TOPyP3-C9H19, 5-(4-Decanamidophenyl)-10,15,20-tris(1-oxido-3-pyridyl)porphyrin] |  |  | 1.4 | 0.9 |  |  | 1.2 | 0.6 |  |  | 648 nm | 713 nm | 1500 M⁻¹ cm⁻¹ | 4900 M⁻¹ cm⁻¹ | 5100 M⁻¹ cm⁻¹ | 15400 M⁻¹ cm⁻¹ | 296400 M⁻¹ cm⁻¹ | 645 nm | 588 nm | 548 nm | λabs Qy (1-0) [5]: 512 nm; λabs Soret (B) [5]: 417 nm; IC50 [1, 13]: 5460 ± 1480 nM; IC50 [1, 14]: 3870 ± 450 nM; IC50 [2, 15]: 6280 ± 820 nM; IC50 [2, 16]: 5460 ± 1080 nM; IC50 [3, 17]: 7.65 ± 0.06 µM; IC50 [3, 18]: 3.49 ± 0.45 µM; phototoxicity / reduction of proliferation at 1 µM ([6]; 1 µM, normoxia or CoCl2-induced hypoxia): very low
4 | CCCCCCCCCCCCCC(=O)Nc1ccc(-c2c3nc(c(-c4ccc[n+](C)c4)c4ccc([nH]4)c(-c4ccc[n+](C)c4)c4nc(c(-c5ccc[n+](C)c5)c5ccc2[nH]5)C=C4)C=C3)cc1 [TMPyP3-C13H27] | 220 ± 80 nM | 150 ± 60 nM | 4.5 | 5.4 | 610 ± 160 nM | 430 ± 30 nM | 1.6 | 1.9 | 0.99 ± 0.05 µM | 0.81 ± 0.05 µM |  |  |  |  |  |  |  |  |  |  | IC50 ([6]; with or without CoCl2, read-out: IC50 in all the tested cells): ≤ 1000 nM
